From patent publication US12030908B2, “Antimicrobial compounds, compositions, and uses thereof” (Lakewood Amedex, Inc., priority 2017, dated 2024)
Values joined by “and” are separate entries in the source; they are usually repeats but may differ in a detail not shown here. Equal entries are not always repeated. “Also recorded” adds a separate entry of the source.

Experiments:
bacterial strains = assay: MIC at pH 3.5 in human and mouse urine; format: cell-based
[1] = system: Acinetobacter baumannii (ATCC 19606); assay: Neutropenic lung infection model in mice, lung bacterial burden (Example 25); format: in vivo, BALB/c mice; conditions: for antibacterial effect on A. baumannii vs day 3 vehicle control: 10% solution aerosol once daily, p<0.05; for Log10 CFU/g lung Mean ± SD / Log10 CFU/g lung: Nu-8 (10%), aerosol, 2 h post end of treatment; for Log10 CFU/g lung Mean ± SD: group mean; for Log10 CFU/g lung: individual animals
Experimental: Neutropenic, BALB/c female mice, all of which were from 6 to 8 weeks of age, were infected intranasally with ˜2×10^7 CFU/lung Acinetobacter baumannii (ATCC 19606). Twenty-four hours after infection; animals were treated by aerosol route with vehicle or Nu-8 (10% solution), once daily for one, three, and five days. Following treatment for 1, 3, and 5 days, animals were terminated, and lung tissues were collected to determine the bacterial load.
The mice were separated into cohorts in accordance with Table 26.
On day −4 (four days before the date of infection), each mouse was dosed with a single intraperitoneal injection of cyclophosphamide equivalent to 150 mg/kg and returned to its cage. On day −1 (one day before infection) each mouse received a dose equivalent to 100 mg/kg of cyclophosphamide.
On day −1, an aliquot from glycerol stocks of Acinetobacter baumannii (ATCC19606) was thawed, inoculated into fresh Casein Soybean Digest Broth (CSDB) and incubated overnight at 37° C.
On the day of infection (Day 0), the overnight culture was checked, centrifuged and the cells were pelleted and resuspended in sterile normal saline to obtain approximately 10^9 CFU/ml Acinetobacter baumannii, which was used for infection. The inoculum was serially diluted ten-fold in sterile CSDB and 0.05 ml of six dilutions was plated onto CSD Agar plates to determine the viable count (CFU/ml) of inoculum.
Animals were divided into different groups as specified in the experimental design (Table 26). Infections were conducted in a biological safety cabinet, with appropriate personnel protection. Mice were placed into an induction chamber and anesthesia was induced by exposing the animals to 3%-5% Isoflurane in an oxygen flow set at approximately 1 liter per minute (LPM). Once the animals were in a sufficiently deep plane of anesthesia, they were removed and infected. Infection was done by instilling 0.02 ml (containing ˜1×10^9 CFU/ml) of the inoculum; 10 μl was instilled into each nostril of the anesthetized animal intra-nasally using a 10 μl pipette (˜2×10^7 CFU/animal). A gentle shaking/mixing of inoculum between two animals was followed for uniform distribution.
The vehicle used for the test compound was saline (0.9% NaCl adjusted to pH 3.5 with citric acid). To make 10% Nu-8 solution, 15 g of compound was weighed and dissolved in 145 ml of 0.9% NaCl; pH of solution was adjusted to 3.5 by adding 2.4 ml of citric acid solution and to this solution, 2.6 ml of 0.9% NaCl solution was added to make up the volume to 150 ml. The same procedure was followed on day 2, 3, 4 and 5.
Treatment was initiated twenty-four hours post infection. Test formulations were administered by aerosol route with nose-only apparatus connected to a nebulizer (Omron Ne-C28 Compressor Nebulizer with a volume capacity of 15 ml, Particle size 3 μm, nebulization rate: 0.5 ml/min, and Aerosol output rate: 0.09 ml/min). The formulation prepared previously was placed into the nebulizer fluid cup; animals were placed in the nose-only apparatus and the entire system was placed inside a Class II Biosafety Cabinet. Animals received nebulization for 20 min, followed by a 30-minute rest and then an additional 20-minute exposure at the same dose concentration (the flow rate and percentage of test material available at the inhalation port was 16% of the initial concentration in the nebulizer if the test compound is in solution).
Groups of animals were euthanized at 2 h post treatment, as specified in the experimental design, by an overdose of CO2 in an appropriate exposure chamber.
The euthanized animals were dipped into 70% ethanol for surface decontamination. Lungs were aseptically excised, weighed, placed in a 2 ml centrifuge tube containing 1 ml of sterile CSDB broth, and homogenized (Omni Tip (220THB handheld)). Serial ten-fold dilutions of the lung homogenates were prepared in sterile CSDB broth and 0.05 ml of four dilutions for each lung was plated onto CSDA agar plates. […]

E. coli ATCC25922 = assay: Urinary tract infection model in rats, transurethral treatment (Example 11); format: in vivo, Sprague-Dawley rats; conditions: 60 min
Experimental: Female Sprague-Dawley rats (n=6/group) are intraurethrally infected with the predetermined inoculum size of E. coli. At the specified time following infection with (depending on the in vivo growth curve), the animals are anaesthetized (ketamine/xylazine) and treated by transurethral administration with neutral saline (group 1), saline pH 3.5 adjusted with phosphoric acid (group 2), test compound Nu-8 pH 3.5 at 103 and 207 mg/kg (groups 3 and 4, respectively). When adjusting pH, the volume of phosphoric acid added are monitored and the final concentration of the pH adjusted dose solution are subsequently determined. The goal is to have the final concentration after pH adjustment within 10% of the desired dose so the final concentration after pH adjustment are reported. Volume of administration will be 300 μL. TABLE 9 (Animal Challenge and Treatment Schedule) summarizes the study groups.
Two hours prior to each infection animals are water deprived. Each animal is infected twice with 24 hrs difference by transurethral administration of 300 μL of bacterial suspension under light ketamine and xylazine anaesthesia. Prior to infection, urine is evacuated by digital pressure, cannula is gently inserted into the bladder via urethra, and 300 μL of bacterial suspension is inserted into the bladder. […]

Haemophilus influenzae = assay: MIC at pH 3.5, CLSI, Mueller-Hinton broth; format: cell-based; conditions: 5 isolates

Compound: CCCCOP(=O)(O)OC[C@H]1O[C@@H](n2ccc(N)nc2=O)C[C@@H]1OP(=O)(O)OCCCC [Nu-8, sodium ((2R,3S,5R)-5-(4-amino-2-oxopyrimidin-1(2H)-yl)-3-((butoxyoxidophosphor-yl)oxy)tetrahydrofuran-2-yl)methyl butyl phosphate]
- MICs in human and mouse urine (bacterial strains): comparable to those of Nu-8 in Mueller Hinton broth
- antibacterial effect on A. baumannii vs day 3 vehicle control ([1]; day 3): significant antibacterial effect; also recorded: significant antibacterial activity
- antibacterial effect on A. baumannii vs day 3 vehicle control ([1]; day 5): significant antibacterial effect; also recorded: significant antibacterial activity
- activity vs vehicle control on day 1 ([1]; 10% solution aerosol, day 1, p>0.05): No significant activity
- Log10 CFU/g lung Mean ± SD ([1]; 3 doses, once daily for 3 days, p < 0.05 vs corresponding vehicle control): 4.01 ± 0.72 Log10 CFU/g lung
- Log10 CFU/g lung ([1]; 3 doses, once daily for 3 days): 4.75 Log10 CFU/g lung and 3.02 Log10 CFU/g lung and 4.34 Log10 CFU/g lung and 3.19 Log10 CFU/g lung and 4.29 Log10 CFU/g lung and 4.46 Log10 CFU/g lung
- Log10 CFU/g lung Mean ± SD ([1]; 5 doses, once daily for 5 days, p < 0.05 vs day 3 vehicle control): 2.69 ± 0.16 Log10 CFU/g lung
- Log10 CFU/g lung ([1]; 5 doses, once daily for 5 days): 2.76 Log10 CFU/g lung and 2.51 Log10 CFU/g lung and 2.71 Log10 CFU/g lung and 2.62 Log10 CFU/g lung and 2.96 Log10 CFU/g lung and 2.60 Log10 CFU/g lung
- Log10 CFU/g lung Mean ± SD ([1]; single dose): 5.67 ± 0.47 Log10 CFU/g lung
- Log10 CFU/g lung ([1]; single dose): 5.51 Log10 CFU/g lung and 6.03 Log10 CFU/g lung and 5.54 Log10 CFU/g lung and 6.30 Log10 CFU/g lung and 5.72 Log10 CFU/g lung and 4.93 Log10 CFU/g lung
- decrease in lung burden compared to the vehicle on day 1 ([1]; following treatment for 5 days): > 3 Log10) CFU/g lung
- mean CFU log 10 per mL of bladder tissue (tissue plus urine) (E. coli ATCC25922; pH 3.5, 103 mg/kg transurethral): 5.53 Log 10 CFUs/mL bladder tissue
- mean CFU log 10 per mL of bladder tissue (tissue plus urine) (E. coli ATCC25922; pH 3.5, 207 mg/kg transurethral): 4.60 Log 10 CFUs/mL bladder tissue
- Nu-8 MIC (mg/mL) at pH 3.5 (Haemophilus influenzae): 4.69-9.38 mg/mL
